In a compilation of properties of binary mixtures (doi:10.1007/s10953-009-9410-7):

Assay: xn = mol fraction of the nth substance listed
Conditions: 101 kPa

CCCCO + CCCC[n+]1ccn(C)c1.N#C[S-]
x1 = 1
Conditions | viscosity [mPa·s]
298.15 K | 2.52
308.15 K | 1.97
318.15 K | 1.56
338.15 K | 1.02

CCCCCCO + CCCC[n+]1ccn(C)c1.N#C[S-]
x1 = 1
Conditions | viscosity [mPa·s]
298.15 K | 4.48
318.15 K | 2.55
328.15 K | 1.98
348.15 K | 1.28

CCCC[n+]1ccn(C)c1.N#C[S-] + CCCCCCO
viscosity [mPa·s]
Conditions | 298.15 K | 308.15 K | 318.15 K | 328.15 K | 338.15 K | 348.15 K
x2 = 0 | 51.7 | 34.9 | 24.2 | 16.7 | 12.7 | 9.98
x2 = 0.0424 | 44.4 | 29.7 | 21 | 15.6 | – | –
x2 = 0.1505 | – | – | 17.7 | 13.3 | 10.3 | 8.26
x2 = 0.3093 | 26.1 | 18.3 | 13.5 | 10.3 | – | 6.54
x2 = 0.453 | 18.2 | – | 9.87 | 7.65 | – | 4.92
x2 = 0.5773 | 13.8 | 10.2 | 7.71 | 6 | – | 3.88
x2 = 0.6307 | 12.1 | 9.01 | – | 5.39 | 4.3 | 3.51
x2 = 0.6962 | 10.3 | 7.67 | 5.87 | – | 3.67 | 3.04
x2 = 0.7583 | 8.77 | 6.54 | 4.98 | – | 3.18 | 2.65
x2 = 0.8512 | 6.83 | 5.15 | 3.99 | – | 2.57 | 2.1
x2 = 0.9102 | 5.87 | – | – | 2.69 | 2.17 | 1.77

CCCC[n+]1ccn(C)c1.N#C[S-] + CCCCCO
viscosity [mPa·s]
Conditions | 298.15 K | 308.15 K | 318.15 K | 328.15 K | 338.15 K | 348.15 K
x2 = 0 | 51.7 | 34.9 | 24.2 | 16.7 | – | 9.98
x2 = 0.0193 | 46.9 | – | 21.9 | 16.2 | 12.5 | 9.88
x2 = 0.1443 | 34.2 | – | 17 | 12.8 | 9.98 | 7.97
x2 = 0.2751 | 26 | 18.3 | 13.5 | 10.4 | 8.2 | –
x2 = 0.3843 | 20 | 14.4 | 10.9 | 8.49 | – | –
x2 = 0.487 | 15.5 | 11.4 | 8.74 | 6.84 | 5.48 | 4.47
x2 = 0.5557 | 12.7 | 9.5 | – | 5.74 | 4.61 | 3.78
x2 = 0.616 | 10.8 | 8.15 | 6.63 | 5.05 | – | 3.42
x2 = 0.7302 | 7.74 | 5.89 | 4.62 | – | 3.04 | 2.54
x2 = 0.7914 | 6.49 | 4.97 | 3.92 | 3.16 | 2.6 | –
x2 = 0.856 | 5.38 | 4.14 | 3.27 | 2.63 | 2.16 | 1.8
x2 = 0.9135 | 4.56 | – | 2.77 | 2.22 | 1.81 | –

CCCCCO + CCCC[n+]1ccn(C)c1.N#C[S-]
x1 = 1
Conditions | viscosity [mPa·s]
308.15 K | 2.57
318.15 K | 2
328.15 K | 1.58
338.15 K | 1.27
348.15 K | 1.03

CCCC[n+]1ccn(C)c1.N#C[S-] + CCCCO
viscosity [mPa·s]
Conditions | 298.15 K | 308.15 K | 318.15 K | 328.15 K | 338.15 K | 348.15 K
x2 = 0 | 51.7 | 34.9 | 24.2 | 16.7 | 12.7 | 9.98
x2 = 0.0911 | 39.2 | 26.5 | – | 14.2 | 11 | 8.82
x2 = 0.3317 | 21.2 | 15.2 | 11.5 | 8.92 | 7.12 | –
x2 = 0.4552 | 15.3 | 11.3 | 8.7 | – | 5.51 | 4.51
x2 = 0.5596 | – | 8.44 | – | 5.16 | – | 3.5
x2 = 0.6222 | – | 7.04 | – | 4.39 | – | 3.02
x2 = 0.6834 | 7.53 | – | – | – | 3.08 | 2.59
x2 = 0.79 | – | 4.12 | 3.3 | 2.69 | 2.24 | 1.89
x2 = 0.8487 | 4.37 | 3.43 | 2.75 | 2.25 | 1.87 | 1.58
x2 = 0.8975 | 3.74 | 2.94 | 2.36 | 1.92 | 1.6 | –
x2 = 0.9738 | – | 2.27 | – | 1.46 | 1.2 | –
